Literature values, collected in patent publication US20250339568A1, “PRECURSOR AND RADIOTRACER FOR NEUROENDOCRINE THERANOSTICS” (ITM Oncologics GmbH, priority 2021, published 2025).

Molecular target: T1, HEK293-SSR2 tumour cells (Homo sapiens, UniProt P30874)
T1 construct: host or cells: HEK293-SSR2 tumour cells
Conditions: reference example of EP 2 801 582 A1, Table 12

T1 sequence (P30874 whole entry): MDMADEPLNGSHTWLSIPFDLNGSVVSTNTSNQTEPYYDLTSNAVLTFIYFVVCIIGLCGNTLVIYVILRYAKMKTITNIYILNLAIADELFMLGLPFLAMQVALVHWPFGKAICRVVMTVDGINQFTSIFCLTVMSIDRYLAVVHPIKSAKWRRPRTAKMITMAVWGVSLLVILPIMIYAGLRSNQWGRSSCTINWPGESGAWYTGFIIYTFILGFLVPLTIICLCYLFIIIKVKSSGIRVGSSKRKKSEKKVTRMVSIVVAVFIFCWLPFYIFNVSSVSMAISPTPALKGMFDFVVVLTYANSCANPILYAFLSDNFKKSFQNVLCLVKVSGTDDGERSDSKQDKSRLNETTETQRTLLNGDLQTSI

- uptake in HEK293-SSR2 tumour cells: without quantifiable uptake
Substance: DOTA-Cpa-cyclo[DCys-Pal-DAph(Cbm)-Lys-Thr-Cys]DTyr-NH2
